biological target: DDR2 (Homo sapiens (Human), UniProt Q16832); test: DDR2 enzyme activity test (ELISA); format: biochemical; settings: Table 3, chiral synthesis vs resolution; read-out: Molecular activity comparison (inhibitory activity against DDR2 enzyme)
Protocol: The optical rotation and the inhibitory activity against DDR2 enzyme of the compounds S11-A and S11-B obtained by the resolution in Example 12, and the chirally synthesized compounds S11-A′ and S11-B′ in Example 13 were tested (referred to the operation in Effect example 1), and the results are shown in Table 3 below:
Detection method: Enzyme-linked immunosorbent assay (ELISA)
Test receptor tyrosine kinase: DDR2
The kinase used in the experiment was obtained by our laboratory using the insect baculovirus expression system to express and purify the recombinant protein containing the protein kinase region; polyglutamic acid-tyrosine peptide segment [Poly(Glu, Tyr) 4:1] and sodium vanadate were purchased from Sigma; the anti-phosphorylated monoclonal antibody PY99 was purchased from Santa Cruz; horseradish peroxidase labeled goat anti-murine secondary antibody was purchased from Calbiochem; ATP and OPD were purchased from Sangon Biotech (Shanghai) Co., Ltd.; the remaining reagents were purchased from Sinopharm Chemical Reagent Co., Ltd. The reaction ELISA plate (#2592) was purchased from Corning. The full-wavelength microplate reader for experiment reading was a product of Molecular Device, model: SpectraMax 190; the experimental water was distilled water produced by Sinopharm Group.
The compound was centrifuged at 12,000 g for 5 min, and DMSO was added to prepare a 10^-2M stock solution, which was vortexed evenly, then sonicated for 10 min and stored at −40° C. for later use. During the test, the compound was diluted with DMSO from the stock solution to 100 times the test concentration (the DMSO concentration in the system was 1%).
1) Enzyme reaction substrate Poly(Glu, Tyr) 4:1 was diluted to 20 μg/mL with potassium-free PBS (10 mM sodium phosphate buffer, 150 mM NaCl, pH 7.2-7.4), and the microtiter plate was coated with 125 μL/well and placed at 37° C. for 12-16 hours of reaction. The liquid in the well was discard. The plate was washed three times with T-PBS (potassium-free PBS containing 0.1% Tween-20, 200 μL/well), 5 minutes each time. The ELISA plate was dried in an oven at 37° C. for 1 to 2 hours.
2) Reaction buffer (50 mM HEPES pH 7.4, 50 mM MgCl2, 0.5 mM MnCl2, 0.2 mM Na3VO4, 1 mM DTT) diluted ATP solution (49 μL) was added to each well, 1 μL of the compound to be tested was added to each well, and then 50 μL of DDR2 kinase domain recombinant protein diluted in the reaction buffer was added to start the reaction. Two control wells without ATP were set in each experiment. The plate placed on a shaker (100 rpm) at 37° C. for 1 hour of reaction. The liquid in the well was discarded and the plate was washed three times with T-PBS.
3) Antibody PY99 dilution solution (the antibody was diluted 1:500 with T-PBS containing BSA 5 mg/mL) was added at 100 μL/well, and shaken on a shaker at 37° C. for 0.5 hour of reaction. The liquid in the well was discarded and the plate was washed three times with T-PBS.
4) Horseradish peroxidase labeled goat anti-murine secondary antibody dilution solution (the antibody is diluted 1:2000 with T-PBS containing BSA 5 mg/ml) was added at 100 μL/well, and shaken on a shaker at 37° C. for 0.5 hour of reaction. The liquid in the well was discarded and the plate was washed three times with T-PBS.
5) 2 mg/ml of OPD color developing solution [diluted with 0.1 M citric acid-sodium citrate buffer (pH=5.4) containing 0.03% H2O2] was added at 100 μL/well and reacted for 1 to 10 minutes at 25° C. in the dark.
6) 2M H2SO4 was added at 50 μL/well to stop the reaction, and a tunable wavelength microplate reader VERSAmax was used for reading at a wavelength of 490 nm.
The IC50 value was obtained by four-parameter regression using the software that came with the microplate reader.

DDR2, sequence (Q16832 563-849): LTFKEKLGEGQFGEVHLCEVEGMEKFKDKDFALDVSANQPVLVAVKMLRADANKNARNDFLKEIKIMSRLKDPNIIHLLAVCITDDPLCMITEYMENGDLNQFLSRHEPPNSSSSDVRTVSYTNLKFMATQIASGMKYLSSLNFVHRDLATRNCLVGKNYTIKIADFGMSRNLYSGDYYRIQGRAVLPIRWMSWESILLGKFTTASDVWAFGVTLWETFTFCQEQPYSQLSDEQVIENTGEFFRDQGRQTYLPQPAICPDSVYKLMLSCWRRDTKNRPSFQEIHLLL

Question: `Cc1ccc([C@@H](C)NC(=O)c2cccc(C(F)(F)F)c2)cc1-c1ccc2nc(Nc3cnn(C4CC4)c3)ncc2c1` [Compound S11-B] was tested. Which IC50 did it give?
Answer: 14.4 ± 2.1 nM

Question: With `Cc1ccc([C@H](C)NC(=O)c2cccc(C(F)(F)F)c2)cc1-c1ccc2nc(Nc3cnn(C4CC4)c3)ncc2c1` [Compound S11-A] as the compound, how does the IC50 read?
Answer: 5 ± 0.1 nM

same assay, conditions: read-out: DDR2 IC50

Question: `CC(C(=O)Nc1ccc(C2CC2)c(-c2ccc3nc(Nc4cnn(C5CC5)c4)ncc3c2)c1)c1cccc(C(F)(F)F)c1` (centres unmarked) [Compound S17, N-(4-cyclopropyl-3-(2-((1-cyclopropyl-1H-pyrazol-4-yl)amino)quinazolin-6-yl)phenyl)-2-(3-(trifluoromethyl)phenyl)propionamide] was tested. Which IC50 did it give?
Answer: 1.7 ± 0.3 nM

Question: For `CCC(NC(=O)c1cccc(C(F)(F)F)c1)c1ccc(C)c(-c2ccc3nc(Nc4cnn(C)c4)ncc3c2)c1` (centres unmarked) [Compound S6, N-(1-(4-methyl-3-(2-((1-methyl-1H-pyrazol-4-yl)amino)quinazolin-6-yl)phenyl)propyl)-3-(trifluoromethyl)benzamide], which IC50 is on record?
Answer: 5 ± 0.5 nM

Question: For `Cc1ccc(NC(=O)Nc2cccc(C(F)(F)F)c2)cc1-c1ccc2nc(Nc3cnn(C)c3)ncc2c1` [Compound S1, 1-(4-methyl-3-(2-((1-methyl-1H-pyrazol-4-yl)amino)quinazolin-6-yl)phenyl)-3-(3-(trifluoromethyl)phenyl)urea], which IC50 is on record?
Answer: 6.6 ± 0.4 nM

Question: How did the IC50 turn out when `Cc1ccc(C(C)NC(=O)Nc2cccc(C(F)(F)F)c2)cc1-c1ccc2nc(Nc3cnn(C)c3)ncc2c1` (centres unmarked) [Compound S27, 1-(1-(4-methyl-3-(2-((1-methyl-1H-pyrazol-4-yl)amino)quinazolin-6-yl)phenyl)ethyl)-3-(3-(trifluoromethyl)phenyl)urea] was run?
Answer: 8.7 ± 1.1 nM

Question: For `Cc1ccc(C(C)C(=O)Nc2cccc(C(F)(F)F)c2)cc1-c1ccc2nc(Nc3cnn(C4CC4)c3)ncc2c1` (centres unmarked) [Compound S9, 2-(3-(2-((1-cyclopropyl-1H-pyrazol-4-yl)amino)quinazolin-6-yl)-4-methylphenyl)-N-(3-(trifluoromethyl)phenyl)propionamide], which IC50 is on record?
Answer: 2.7 ± 0.1 nM

Question: For `Cc1ccc(C(C)NC(=O)c2cccc(C(F)(F)F)c2)cc1-c1ccc2cnc(Nc3cnn(C)c3)nc2c1` (centres unmarked) [Compound S4, N-(1-(4-methyl-3-(2-((1-methyl-1H-pyrazol-4-yl)amino)quinazolin-7-yl)phenyl)ethyl)-3-(Trifluoromethyl)benzamide], which IC50 is on record?
Answer: 4.1 ± 0.1 nM

Question: For `Cc1ccc(C(=O)NCc2cccc(C(F)(F)F)c2)cc1-c1ccc2nc(Nc3cnn(C)c3)ncc2c1` [Compound S7, 4-methyl-3-(2-((1-methyl-1H-pyrazol-4-yl)amino)quinazolin-6-yl)-N-(3-(trifluoromethyl)benzyl)benzamide], which IC50 is on record?
Answer: 1.3 ± 0.2 nM

Question: Which IC50 does the source give for `CC(C)c1ccc(C(=O)Nc2cccc(C(F)(F)F)c2)cc1-c1ccc2nc(Nc3cnn(C)c3)ncc2c1` [Compound S13, 4-isopropyl-3-(2-((1-methyl-1H-pyrazol-4-yl)amino)quinazolin-6-yl)-N-(3-(trifluoromethyl)phenyl)benzamide] here?
Answer: 5.4 ± 0.4 nM

Question: How did the IC50 turn out when `C[C@@H](NC(=O)c1ccc(C2CC2)c(-c2ccc3cnc(Nc4cnn(C5CC5)c4)nc3c2)c1)c1cccc(C(F)(F)F)c1` [Compound S37] was run?
Answer: 13.5 ± 7.2 nM

Question: How did the IC50 turn out when `Cc1ccc(NC(=O)C(C)c2cccc(C(F)(F)F)c2)cc1-c1ccc2nc(Nc3cnn(C)c3)ncc2c1` (centres unmarked) [Compound S8, N-(4-methyl-3-(2-((1-methyl-1H-pyrazol-4-yl)amino)quinazolin-6-yl)phenyl)-2-(3-(trifluoromethyl)phenyl)propionamide] was run?
Answer: 2.2 ± 0.2 nM

Question: How did the IC50 turn out when `Cc1ccc(C(C)NC(=O)c2cccc(C(C)(C)C#N)c2)cc1-c1ccc2nc(Nc3cnn(C4CC4)c3)ncc2c1` (centres unmarked) [Compound S20, 3-(2-cyanopropane-2-yl)-N-(1-(3-(2-((1-cyclopropyl-1H-pyrazol-4-yl)amino)quinazolin-6-yl)-4-methylphenyl)ethyl)benzamide] was run?
Answer: 5.6 ± 0.3 nM

Question: For `Cc1ccc(C(=O)NC(C)c2cccc(C(F)(F)F)c2)cc1-c1ccc2nc(Nc3cnn(C)c3)ncc2c1` (centres unmarked) [Compound S5, 4-Methyl-3-(2-((1-methyl-1H-pyrazol-4-yl)amino)quinazolin-6-yl)-N-(1-(3-(trifluoromethyl)phenyl)ethyl)benzamide], which IC50 is on record?
Answer: 2.9 ± 0.8 nM

Question: How did the IC50 turn out when `Cn1cc(Nc2ncc3cc(-c4cc(C(=O)Nc5cccc(C(F)(F)F)c5)ccc4C4CC4)ccc3n2)cn1` [Compound S14, 4-cyclopropyl-3-(2-((1-methyl-1H-pyrazol-4-yl)amino)quinazolin-6-yl)-N-(3-(trifluoromethyl)phenyl)benzamide] was run?
Answer: 4.3 ± 0.7 nM

Question: `Cc1ccc(NC(=O)Nc2cc(C(C)(C)C)nn2-c2ccccc2)cc1-c1ccc2nc(Nc3cnn(C)c3)ncc2c1` [Compound S2, 1-(3-(tert-butyl)-1-phenyl-1H-pyrazol-5-yl)-3-(4-methyl-3-(2-((1-methyl-1H-pyrazol-4-yl)amino)quinazolin-6-yl)phenyl)urea] was tested. Which IC50 did it give?
Answer: 9.7 ± 0.6 nM

same assay, conditions: read-out: DDR2 Inhibition rate at 0.1 μM

Question: With `CC(NC(=O)c1ccc(C2CC2)c(-c2ccc3nc(Nc4cnn(C5CC5)c4)ncc3c2)c1)c1cc(C(F)(F)F)ccn1` (centres unmarked) [Compound S45] as the compound, how does the inhibition at 0.1 µM read?
Answer: 68.4%

Question: `Cc1nc(C(C)NC(=O)c2ccc(C3CC3)c(-c3ccc4nc(Nc5cnn(C6CC6)c5)ncc4c3)c2)cs1` (centres unmarked) [Compound S44] was tested. Which inhibition at 0.1 µM did it give?
Answer: 72.9%

Question: With `CCN1CCN(Cc2cc(C(C)NC(=O)c3ccc(C4CC4)c(-c4ccc5nc(Nc6cnn(C7CC7)c6)ncc5c4)c3)cc(C(F)(F)F)c2)CC1` (centres unmarked) [Compound S43] as the compound, how does the inhibition at 0.1 µM read?
Answer: 57.6%

Question: How did the inhibition at 0.1 µM turn out when `O=C(NC1CCc2c1cccc2C(F)(F)F)c1ccc(C2CC2)c(-c2ccc3nc(Nc4cnn(C5CC5)c4)ncc3c2)c1` (centres unmarked) [Compound S46] was run?
Answer: 47.7%

test system: pulmonary fibrosis induced by bleomycin in mice; test: mRNA levels of fibrosis-related markers in lung tissue (qRT-PCR); format: in vivo, mouse; settings: 30 mg/kg
Protocol: About 30 mg of cryopreserved lung tissue was weighed and homogenized and lysed by adding 200 μL of Trizol (Takara, 9109 #). The fluid after the lysis in the well was collected by the RNA sterilization-grade pipette tip and transferred to the corresponding sterile EP tube. […] of chloroform was added, shaken vigorously for 30 sec, and centrifuged for 15 minutes in a centrifuge at 4° C. at 12000 rpm. The upper aqueous layer was transferred to a new EP tube, an equal volume of isopropanol was used to precipitate the RNA in the aqueous phase, and the tube was allowed to stand at −20° C. for more than 1 hr. And then the tube was centrifuged for 15 min at 4° C. at 12000 rpm, and the supernatant was discarded. 75% ethanol was added to wash the RNA pellet, and then the tube was centrifuged for 15 min at 4° C. at 12000 rpm, and the supernatant was discarded. The tube was placed at room temperature for 10-20 min to dry the RNA pellet. 25-200 μL of RNase-free water was added for dissolution and stored at −80° C.
PrimeScript™ RT Master Mix (Takara, RR036A) was selected for mRNA reverse transcription. Please refer to the instructions for the system. In short, 1 μg of mRNA was added to a 20 μL system, mixed and then kept at a constant temperature in a 37° C. water bath for 15 minutes, and then the enzyme was inactivated at 85° C. for 5 seconds. After centrifugation, double distilled water was used to dilute 10 times.
Q-PCR technology used 2×SYBR Green qPCR Master Mix (B21202, Biomake), and the reaction system could be prepared according to the instruction (10 μL of 2×SYBGreen, 8.8 μL of cDNA template, 1.2 μL of 5 μM primer Mix). The reaction conditions are: pre-denaturation at 95° C. for 5 min, denaturation at 95° C. for 30 sec, annealing at 60° C. for 30 sec, and extension at 72° C. for 30 sec, the number of reaction cycles is 40 cycles.
The experiment used qRT-PCR technology to determine the mRNA levels of fibrosis-related markers in lung tissue.
The experimental method was the same as that for the evaluation of the mRNA levels of inflammatory cytokines.

Question: Which “reduction of expression (mRNA) of Collagen1-α1” value does the source give for `Cc1ccc([C@H](C)NC(=O)c2cccc(C(F)(F)F)c2)cc1-c1ccc2nc(Nc3cnn(C4CC4)c3)ncc2c1` [Compound S11-A] here?
Answer: about 50%

Question: What about the “reduction of expression (mRNA) of TGF-β1” value of the same compound?
Answer: about 50%

Question: And the “reduction of expression (mRNA) of α-SMA” value?
Answer: about 50%

From US11655239B2 (SHANGHAI INSTITUTE OF MATERIAL MEDICA, CHINESE ACADEMY OF …, priority 2019, dated 2023)
